Ends that are not written are not given here.
What was measured:
[1] = system: mice with Behçet's disease; experiment: Skin symptom improvement in mice with Behçet's disease; assay type: in vivo; conditions: external agent on skin, 1 μg/mouse once a day for 10 days; FIG. 6
Experimental: After applying the peptide-including external agent used in the Experimental Example 5 to the skin of mice with Behçet's disease, changes in the symptom improvement were checked. Administration was performed by 1 μg/mouse once a day for 10 days.

IL-17 = experiment: Genetic analysis via real-time PCR in vitro, cytokine expression in cultured cells; assay type: cell-based, mouse; conditions: for cytokine IL-17 in the lymph node: FIG. 2E; for cytokine IL-17 in the spleen: peptide treatment 24 hours, FIG. 2A
Experimental: (§1) While culturing spleen cells isolated from the spleen of 4-week-old male ICR mice weighing 25 g, various types of peptides having lipidized at terminus of the peptides were treated to cells, and changes in cytokine expression were observed via real-time PCR. Spleen cell isolation was performed by cutting out the spleen from mice, placing the spleen on a cell filter, crushing the spleen on a Petri dish through the cell filter using the plunger tip of a syringe, rinsing the cell filter with PBS, and transferring the suspended cells to 15 mL conical tube. Cells were centrifuged at 4° C. and 800×g for 5 minutes. Subsequently, the supernatant was discarded, and the pellets were resuspended in 1 mL of ACK buffer (ammonium-chloride-potassium lysing buffer). After leaving at room temperature for 5 to 10 minutes, […] of PBS at 4° C. was added, and the cells were centrifuged again at 4° C. and 800×g for 5 minutes. The supernatant was discarded again, the pellets were resuspended in 5 mL of culture, and 2×10^6 cells/mL were cultured in DMEM medium. Before culturing spleen cells in an incubator, 1 μg/mL anti-CD3 Ab was coated on the bottom of a culture container, after 24 hours, culture was performed for 3 days in DMEM medium including 1 μg of anti-CD28 Ab, 20 ng of IL-6, 5 ng of TGF beta, and 20 ng of IL-23 per 1 mL of culture medium, and then the peptides were treated, followed by culture for another 24 hours.

TNF-alpha = experiment: as above; assay type: cell-based, mouse; conditions: for cytokine TNF-alpha in the spleen: peptide treatment 24 hours, FIG. 2C; for cytokine TNF-alpha in the lymph node: FIG. 2G
Experimental: as §1

ROR-gammaT gene = experiment: Genetic analysis via real-time PCR in vitro, gene expression in cultured cells; assay type: cell-based, mouse; conditions: for expression of ROR-gammaT gene in the lymph node: FIG. 2F
Experimental: as §1

IL-1 beta = experiment: Genetic analysis via real-time PCR in vitro, cytokine expression in cultured cells; assay type: cell-based, mouse; conditions: for cytokine IL-1 beta in the lymph node: FIG. 2H; for cytokine IL-1 beta in the spleen: peptide treatment 24 hours, FIG. 2D
Ly6G+ (neutrophil) cells = experiment: Frequency of Ly6G+ (neutrophil) cells in peripheral blood of collagen induced arthritis (CIA) mice; assay type: in vivo, mouse; conditions: 1 μg intramuscularly 10 times (once every 2 days), FIG. 8
Experimental: (§2) Collagen was mixed with an adjuvant and injected subcutaneously into the tail twice (Day 1 and Day 11) to prepare arthritis model mice. The adjuvant is a mixture of 17 μL of high-concentration paraffin oil (Fisher, cat. no. 0122-1) and 68 μg (17 μL) of complete Freund adjuvant (CFA; Sigma-Aldrich, cat. no. F5881), which was used by mixing with 34 μg (17 μL) of bovine type II collagen (MD bioproducts cat. no. 804001-Sol). From the day after the second collagen injection (day 12), 1 μg (100 μL) of peptide was administered intramuscularly to the hind legs 10 times (once every 2 days), and mouse peripheral blood cells were isolated to analyze the frequency of Ly6G+ cells via flow cytometry. Peripheral blood cells were isolated from mouse hearts, red blood cells were lysed in ACK buffer (ammonium-chloride-potassium lysing buffer), and then centrifugation was performed to collect only blood cells to be used for antibody staining for the analysis with the flow cytometer. Using Ly6G+ as a neutrophil marker, whether the peptide inhibits a frequency of inflammation-induced neutrophil cells in an arthritis model was determined. Methotrexate (MTX) was used as a control drug.

[2] = system: arthritis model mice (collagen induced arthritis, CIA); experiment: Ankle thickness in collagen induced arthritis (CIA) mice; assay type: in vivo, mouse; conditions: at day 30, compared to arthritis mice (control) without receiving peptides; FIGS. 9A-9B
Experimental: as §2
Since the thickness of the ankle increases due to edema caused by arthritis, the ankle thickness was measured to determine whether peptide administration may relieve edema caused by inflammation. The ankle thickness was measured with a digital caliper at the thickest part of the ankle.

| Substance | skin symptom improvement [1] | cytokine IL-17 in the lymph node (IL-17) | cytokine IL-17 in the spleen (IL-17) | cytokine TNF-alpha in the spleen (TNF-alpha) | expression of ROR-gammaT gene in the lymph node (ROR-gammaT gene) | cytokine IL-1 beta in the lymph node (IL-1 beta) | cytokine IL-1 beta in the spleen (IL-1 beta) | frequency of Ly6G+ cells (Ly6G+ (neutrophil) cells) | thickness of the ankle [2] | cytokine TNF-alpha in the lymph node (TNF-alpha) | expression of ROR-gammaT gene in the spleen (ROR-gammaT gene; spleen, peptide treatment 24 hours, FIG. 2B) |
| --- | --- | --- | --- | --- | --- | --- | --- | --- | --- | --- | --- |
| GCAATCPEAKPREIVECCSTDKCNH (SEQ ID NO: 7) (E4) [Peptide E4] | almost disappeared after 10 days, and the wound healed |  |  |  |  |  |  |  |  |  |  |
| LICPEKYCNKVHTCRNGENICF (SEQ ID NO: 4) (E1) [Peptide E1] | the symptom almost disappeared after 10 days | reduced | reduced | reduced | reduced | reduced | reduced | decreased to a statistically significant level | significantly reduced |  |  |
| LTCLICPEKYCNKVHTCRNGENICF (SEQ ID NO: 5) (E2) [Peptide E2] | improved the skin erythema | reduced | reduced | reduced | reduced |  | reduced |  | significantly reduced | reduced |  |
| P1M: P1 peptide (SEQ ID NO: 1) with myristoylation, component of P124-M (LICPEKYCNKVHT; cysteine pairing not given here; also: myristoylation) [Peptide P1M] |  |  |  |  |  |  | reduced |  |  |  |  |
| P2M: P2 peptide (SEQ ID NO: 2) with myristoylation, component of P124-M (YCNKVHTCRNG; cysteine pairing not given here; also: myristoylation) [Peptide P2M] |  | reduced | reduced | reduced |  |  |  |  |  |  |  |
| P4M: P4 peptide (SEQ ID NO: 3) with myristoylation, component of P124-M (HTCRNGENICF; cysteine pairing not given here; also: myristoylation) [Peptide P4M] |  | reduced |  | reduced |  |  | reduced |  |  |  |  |
| TCPEAKPREIVECCSTDKCNH (SEQ ID NO: 6) (E3) [Peptide E3] |  | reduced | reduced | reduced | reduced | reduced | reduced |  | significantly reduced | reduced | reduced |

Source: patent publication US12698308B2, “Peptide for preventing or treating inflammatory diseases” (AJOU UNIVERSITY INDUSTRY-ACADEMIC COOPERATION FOUNDATION, priority 2021, dated 2026)
